# Test results as given in patent publication US6063803A, “Octahydropyrrolo-[3,4-c]carbazoles useful as analgesic agents” (Ortho-McNeil Pharmaceutical, Inc., priority 1999, dated 2000).
# Molecular target: α1-adrenergic receptor
# Assay: α1-adrenergic receptor binding (3H-prazosin displacement, rat cortex membranes)
# Design: species or system rat (Wistar)
# Details: 3H-prazosin 0.05 nM, 25° C., 20 min
# Description: Charles River male Wistar (virus-free) rats were group housed for approximately one week and given food and water (Wayne Lab Blox) ad libitum. Animals were exposed to equal hours(12--12) of dark and light and used at a weight range of 150-280 g (8 to 10 weeks of age). Rats were sacrificed by cervical dislocation and their brains were rapidly excised and immediately placed on ice. The cortex was removed, weighed, and used immediately or frozen on dry ice.
# The frozen tissue was homogenized in 20 volumes of HEPES buffered sucrose (10 mM HEPES, 300 mM sucrose, pH 7.5) using a motor driven Teflon pestle/glass homogenizer (all homogenates and solutions were maintained at 4-8° C.). The homogenate was centrifuged at 1000×g for 10 minutes, and the supernatant was recentrifuged at 48,000×g for 10 min. […]
# The samples were incubated in a 25° C. water bath for 20 min, harvested on a Brandel Cell Harvester on to Wallac filtermat-B sheets (96 sample format), washed three times with 2 mL cold HEPES-buffer (10 mM, pH 7.5), and dried in a microwave oven. To each sample area 80 ul of Betaplate Scint scintillation fluid (LKB) was added and analyzed on a LKB (Wallac) 1205 BetaPlate liquid scintillation counter.
# The data were used to calculate either the % inhibition compared to control binding (a single concentration of test compound is evaluated) or a Ki value (a range of concentrations are tested). […]
smiles,measurement,value
"CN1CC2CCc3[nH]c4ccccc4c3C2C1 (single isomer, unassigned) [Compound 58]",Ki,0.061 µM
